Laboratory results as given in patent publication US8637525B2, “Compounds for the reduction of beta-amyloid production” (Bristol-Myers Squibb Company, priority 2009, dated 2014).

Test system: Aβ1-42 production
Experiment: Cellular assay for inhibition of Aβ1-42 production (H4 APP751 SWE clone 8.20)
Type: cell-based
Details: 19 h, H4 APP751 SWE clone 8.20 cells, 19 h incubation; class symbols; read-out: Activity Rating (Aβ42 cellular IC50)
Method in brief: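 19 h cell treatment, 37 °C/5% CO2. Detection of secreted Aβ42 in the cell plate: 565 (Aβ42-specific, Wallac) and 26D6 (N-terminal, APC), overnight 4 °C. IC50 from fitted curves.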

SMILES | IC50 [nM]
COc1cc(Nc2nc3c(c(N4CC[C@H](F)C4)n2)COC3c2ccc(F)cc2)ccc1-n1cnc(Cl)c1 (single isomer, unassigned) [Example 76] | 10 to 100
CCNc1nc(Nc2ccc(-n3ncnc3C)c(F)c2)nc2c1COC2c1ccc(F)cc1 (single isomer, unassigned) [Example 78B, N^4-ethyl-N^2-(3-fluoro-4-(5-methyl-1H-1,2,4-triazol-1-yl)phenyl)-7-(4-fluorophenyl)-5,7-dihydrofuro[3,4-d]pyrimidine-2,4-diamine] | 10 to 100
CNc1nc(Nc2ccc(-n3cnc(Cl)c3)c(OC)c2)nc2c1COC2c1ccc(F)cc1 (single isomer, unassigned) [Example 79B, N^2-(4-(4-chloro-1H-imidazol-1-yl)-3-methoxyphenyl)-7-(4-fluorophenyl)-N^4-methyl-5,7-dihydrofuro[3,4-d]pyrimidine-2,4-diamine] | 10 to 100
CNc1nc(Nc2ccc(-n3cnc(Cl)c3)c(OC)c2)nc2c1CCC2c1ccc(F)c(F)c1 (single isomer, unassigned) [Example 96A, N^2-(4-(4-chloro-1H-imidazol-1-yl)-3-methoxyphenyl)-7-(3,4-difluorophenyl)-N^4-methyl-6,7-dihydro-5H-cyclopenta[d]pyrimidine-2,4-diamine] | 1.5 to 9.9

Second part, the molecule after the results:

IC50 [nM] | SMILES
10 to 100 | COc1cc(Nc2nc3c(c(N4CC(F)(F)C4)n2)CCC3c2ccc(OC(F)(F)F)cc2)ccc1-n1cnc(Cl)c1 (single isomer, unassigned) [Example 99A, N-(4-(4-chloro-1H-imidazol-1-yl)-3-methoxyphenyl)-4-(3,3-difluoroazetidin-1-yl)-7-(4-(trifluoromethoxy)phenyl)-6,7-dihydro-5H-cyclopenta[d]pyrimidin-2-amine]
10 to 100 | COc1cc(Nc2nc3c(c(N(C)C)n2)CCC3c2ccc(OC(F)(F)F)cc2)ccc1-n1cnc(Cl)c1 (single isomer, unassigned) [Example 100B, N^2-(4-(4-chloro-1H-imidazol-1-yl)-3-methoxyphenyl)-N^4,N^4-dimethyl-7-(4-(trifluoromethoxy)phenyl)-6,7-dihydro-5H-cyclopenta[d]pyrimidine-2,4-diamine]

Same assay, conditions: 19 h, H4 APP751 SWE clone 8.20 cells, 19 h incubation; read-out: Activity Rating (Aβ42 cellular IC50), numeric value

SMILES | IC50 [nM]
CCNc1nc(Nc2ccc(-n3ncnc3C)c(F)c2)nc2c1COC2c1ccc(F)cc1 (single isomer, unassigned) [Example 78A, N^4-ethyl-N^2-(3-fluoro-4-(5-methyl-1H-1,2,4-triazol-1-yl)phenyl)-7-(4-fluorophenyl)-5,7-dihydrofuro[3,4-d]pyrimidine-2,4-diamine] | 19
CNc1nc(Nc2ccc(-n3cnc(Cl)c3)c(OC)c2)nc2c1COC2c1ccc(F)cc1 (single isomer, unassigned) [Example 79A, N^2-(4-(4-chloro-1H-imidazol-1-yl)-3-methoxyphenyl)-7-(4-fluorophenyl)-N^4-methyl-5,7-dihydrofuro[3,4-d]pyrimidine-2,4-diamine] | 5.8

The remaining lines, values ahead:

IC50 [nM] | SMILES
4.6 | CNc1nc(Nc2ccc(-n3cnc(Cl)c3)c(OC)c2)nc2c1CCC2c1ccc(F)c(F)c1 (single isomer, unassigned) [Example 96B, N^2-(4-(4-chloro-1H-imidazol-1-yl)-3-methoxyphenyl)-7-(3,4-difluorophenyl)-N^4-methyl-6,7-dihydro-5H-cyclopenta[d]pyrimidine-2,4-diamine]
190 | COc1cc(Nc2nc3c(c(N4CC(F)(F)C4)n2)CCC3c2ccc(OC(F)(F)F)cc2)ccc1-n1cnc(Cl)c1 (single isomer, unassigned) [Example 99B, N-(4-(4-chloro-1H-imidazol-1-yl)-3-methoxyphenyl)-4-(3,3-difluoroazetidin-1-yl)-7-(4-(trifluoromethoxy)phenyl)-6,7-dihydro-5H-cyclopenta[d]pyrimidin-2-amine]
4.7 | COc1cc(Nc2nc3c(c(N(C)C)n2)CCC3c2ccc(OC(F)(F)F)cc2)ccc1-n1cnc(Cl)c1 (single isomer, unassigned) [Example 100A, N^2-(4-(4-chloro-1H-imidazol-1-yl)-3-methoxyphenyl)-N^4,N^4-dimethyl-7-(4-(trifluoromethoxy)phenyl)-6,7-dihydro-5H-cyclopenta[d]pyrimidine-2,4-diamine]

Same assay, conditions: H4 APP751 SWE clone 8.20 cells, 19 h incubation; class symbols; read-out: Activity Rating (Aβ42 cellular IC50)

SMILES | IC50 [nM]
COc1cc(Nc2nc3c(c(N4CC[C@H](F)C4)n2)COC3c2ccc(F)cc2)ccc1-n1cnc(Cl)c1 (single isomer, unassigned) [Example 77] | 10 to 100
COc1cc(Nc2nc3c(c(N4CC[C@@H](F)C4)n2)COC3c2ccc(F)cc2)ccc1-n1cnc(Cl)c1 (single isomer, unassigned) [Example 83A] | 1.5 to 9.9
COc1cc(Nc2nc3c(c(N4CC[C@@H](F)C4)n2)COC3c2ccc(F)cc2)ccc1-n1cnc(Cl)c1 (single isomer, unassigned) [Example 83B] | 10 to 100
COc1cc(Nc2nc3c(c(N(C)C)n2)CCC3c2ccc(F)c(F)c2)ccc1-n1cnc(Cl)c1 (single isomer, unassigned) [Example 95A, N^2-(4-(4-chloro-1H-imidazol-1-yl)-3-methoxyphenyl)-7-(3,4-difluorophenyl)-N^4,N^4-dimethyl-6,7-dihydro-5H-cyclopenta[d]pyrimidine-2,4-diamine] | 1.5 to 9.9
COc1cc(Nc2nc3c(c(N(C)C)n2)CCC3c2ccc(F)c(F)c2)ccc1-n1cnc(Cl)c1 (single isomer, unassigned) [Example 95B, N^2-(4-(4-chloro-1H-imidazol-1-yl)-3-methoxyphenyl)-7-(3,4-difluorophenyl)-N^4,N^4-dimethyl-6,7-dihydro-5H-cyclopenta[d]pyrimidine-2,4-diamine] | 10 to 100
CNc1nc(Nc2ccc(-n3cnc(Cl)c3)c(OC)c2)nc2c1CCC2c1cc(F)c(F)c(F)c1 (single isomer, unassigned) [Example 103A, N^2-(4-(4-chloro-1H-imidazol-1-yl)-3-methoxyphenyl)-N^4-methyl-7-(3,4,5-trifluorophenyl)-6,7-dihydro-5H-cyclopenta[d]pyrimidine-2,4-diamine] | 1.5 to 9.9

More lines, now with the values ahead:

IC50 [nM] | SMILES
1.5 to 9.9 | CCNc1nc(Nc2ccc(-n3cnc(Cl)c3)c(OC)c2)nc2c1COC2c1ccc(F)cc1 (single isomer, unassigned) [Example 75A, N^2-(4-(4-chloro-1H-imidazol-1-yl)-3-methoxyphenyl)-N^4-ethyl-7-(4-fluorophenyl)-5,7-dihydrofuro[3,4-d]pyrimidine-2,4-diamine]
10 to 100 | CCNc1nc(Nc2ccc(-n3cnc(Cl)c3)c(OC)c2)nc2c1COC2c1ccc(F)cc1 (single isomer, unassigned) [Example 75B, N^2-(4-(4-chloro-1H-imidazol-1-yl)-3-methoxyphenyl)-N^4-ethyl-7-(4-fluorophenyl)-5,7-dihydrofuro[3,4-d]pyrimidine-2,4-diamine]
1.5 to 9.9 | CNc1nc(Nc2ccc(-n3cnc(Cl)c3)c(OC)c2)nc2c1CCC2c1ccc(Cl)cc1 (single isomer, unassigned) [Example 94A, N^2-(4-(4-chloro-1H-imidazol-1-yl)-3-methoxyphenyl)-7-(4-chlorophenyl)-N^4-methyl-6,7-dihydro-5H-cyclopenta[d]pyrimidine-2,4-diamine]
10 to 100 | CNc1nc(Nc2ccc(-n3cnc(Cl)c3)c(OC)c2)nc2c1CCC2c1ccc(Cl)cc1 (single isomer, unassigned) [Example 94B, N^2-(4-(4-chloro-1H-imidazol-1-yl)-3-methoxyphenyl)-7-(4-chlorophenyl)-N^4-methyl-6,7-dihydro-5H-cyclopenta[d]pyrimidine-2,4-diamine]
1.5 to 9.9 | CNc1nc(Nc2ccc(-n3cnc(Cl)c3)c(OC)c2)nc2c1CCC2c1ccc(OC(F)(F)F)cc1 (single isomer, unassigned) [Example 97A, N^2-(4-(4-chloro-1H-imidazol-1-yl)-3-methoxyphenyl)-N^4-methyl-7-(4-(trifluoromethoxy)phenyl)-6,7-dihydro-5H-cyclopenta[d]pyrimidine-2,4-diamine]
10 to 100 | CNc1nc(Nc2ccc(-n3cnc(Cl)c3)c(OC)c2)nc2c1CCC2c1ccc(OC(F)(F)F)cc1 (single isomer, unassigned) [Example 97B, N^2-(4-(4-chloro-1H-imidazol-1-yl)-3-methoxyphenyl)-N^4-methyl-7-(4-(trifluoromethoxy)phenyl)-6,7-dihydro-5H-cyclopenta[d]pyrimidine-2,4-diamine]
1.5 to 9.9 | CCNc1nc(Nc2ccc(-n3cnc(Cl)c3)c(OC)c2)nc2c1CCC2c1ccc(OC(F)(F)F)cc1 (single isomer, unassigned) [Example 98A, N^2-(4-(4-Chloro-1H-imidazol-1-yl)-3-methoxyphenyl)-N^4-ethyl-7-(4-(trifluoromethoxy)phenyl)-6,7-dihydro-5H-cyclopenta[d]pyrimidine-2,4-diamine]
10 to 100 | CCNc1nc(Nc2ccc(-n3cnc(Cl)c3)c(OC)c2)nc2c1CCC2c1ccc(OC(F)(F)F)cc1 (single isomer, unassigned) [Example 98B, N^2-(4-(4-Chloro-1H-imidazol-1-yl)-3-methoxyphenyl)-N^4-ethyl-7-(4-(trifluoromethoxy)phenyl)-6,7-dihydro-5H-cyclopenta[d]pyrimidine-2,4-diamine]
1.5 to 9.9 | COc1cc(Nc2nc3c(c(N4CCC4)n2)CCC3c2ccc(OC(F)(F)F)cc2)ccc1-n1cnc(Cl)c1 (single isomer, unassigned) [Example 101A, 4-(azetidin-1-yl)-N-(4-(4-chloro-1H-imidazol-1-yl)-3-methoxyphenyl)-7-(4-(trifluoromethoxy)phenyl)-6,7-dihydro-5H-cyclopenta[d]pyrimidin-2-amine]
10 to 100 | COc1cc(Nc2nc3c(c(N4CCC4)n2)CCC3c2ccc(OC(F)(F)F)cc2)ccc1-n1cnc(Cl)c1 (single isomer, unassigned) [Example 101B, 4-(azetidin-1-yl)-N-(4-(4-chloro-1H-imidazol-1-yl)-3-methoxyphenyl)-7-(4-(trifluoromethoxy)phenyl)-6,7-dihydro-5H-cyclopenta[d]pyrimidin-2-amine]
